Values quoted from earlier work in patent publication US20210346497A1, “Methods of Treating Cancer” (Tesaro, Inc., priority 2018, published 2021).

Columns and labels:
[1] = system: PARP activity in various cell lines
[2] = system: cancer cell lines silenced for BRCA-1 or BRCA-2, or carrying BRCA-1 or BRCA-2 mutations
[3] = system: normal human cells
[4] = system: MDA-MB-436, CAPAN-1, GRANTA-519, OVCAR3, HT29, DLD-1, patient derived Ewing's sarcoma and TNBC xenograft models; conditions: BRCA-1 mutant breast, BRCA-2 mutant pancreatic, ATM-mutant mantle cell lymphoma, serous ovarian, colorectal, TNBC xenografts in mice
[5] = system: tumor cell

Structure (SMILES): Cc1ccc(S(=O)(=O)O)cc1.NC(=O)c1cccc2cn(-c3ccc([C@@H]4CCCNC4)cc3)nc12 [Niraparib, (3S)-3-[4-{7-(aminocarbonyl)-2H-indazol-2-yl}phenyl]piperidine]
- IC50 ([1]; read-out: IC50 of PARP activity in cells, PARP activity stimulated by DNA damage caused by hydrogen peroxide): ~4 nM
- IC90 ([1]; read-out: inhibitory concentration at 90% of control (IC90) of PARP activity in cells, PARP activity stimulated by DNA damage caused by hydrogen peroxide): ~50 nM
- anti-proliferative activity ([2]; BRCA-1/BRCA-2 silenced or mutant cancer cell lines compared to wild type counterparts): selective anti-proliferative activity
- consequence on cell cycle of BRCA-defective cells ([2]; BRCA-defective cells): cell cycle arrest in G2/M followed by apoptosis
- activity on normal human cells [3]: weak activity
- antitumor activity in vivo [4]: strong antitumor activity
- cell cycle arrest [5]: arrest in the G2/M phase of the cell cycle
